{"source": "patent US20210378240A1", "about": "“OXETANYLPHENOXYQUINOLINES AND ANALOGUES” (Bayer Aktiengesellschaft, priority 2018, published 2021)", "experimental": "In table 1, the logP values were determined in accordance with EEC Directive 79/831 Annex V.A8 by HPLC (High Performance Liquid Chromatography) on a reversed-phase column (C 18), using the method to described below:\ntemperature: 40° C.; mobile phases: 0.1% aqueous formic acid and acetonitrile; linear gradient from 10% acetonitrile to 95% acetonitrile;\nCalibration was carried out using unbranched alkan-2-ones (comprising 3 to 16 carbon atoms) with known logP values (determination of the logP values by the retention times using linear interpolation between two successive alkanones). lambda-max-values were determined using UV-spectra from 200 nm to 400 nm and the peak values of the chromatographic signals."}
{"smiles": "Cc1nc2c(F)c(F)ccc2cc1Cc1ccccc1Br", "note": "[3-(2-bromobenzyl)-7,8-difluoro-2-methylquinoline]", "values": [{"measurement": "chromatographic logP", "result": 4.26}]}
{"smiles": "O=[N+]([O-])c1cccc(F)c1OC1COC1", "note": "[3-(2-fluoro-6-nitrophenoxy)oxetane]", "values": [{"measurement": "chromatographic logP", "result": 2}]}
{"smiles": "Nc1cccc(F)c1OC1COC1", "note": "[3-fluoro-2-(oxetan-3-yloxy)-aniline, 3-fluoro-2-(oxetan-3-yloxy)aniline]", "values": [{"measurement": "chromatographic logP", "result": 1.32}]}
{"smiles": "Cc1nc2c(F)c(F)ccc2cc1Oc1ccccc1C1OCC1(C)C", "note": "(centres unmarked) [I.01, 3-[2-(3,3-dimethyloxetan-2-yl)phenoxy]-7,8-difluoro-2-methyl-quinoline]", "values": [{"measurement": "chromatographic logP", "result": 4.44}]}
{"smiles": "Cc1nc2c(F)c(F)ccc2cc1Oc1ccccc1C1COC1", "note": "[I.02, 7,8-difluoro-2-methyl-3-[2-(oxetan-3-yl)phenoxy]quinoline]", "values": [{"measurement": "chromatographic logP", "result": 3.33}]}
{"smiles": "Cc1nc2c(F)c(F)ccc2cc1Oc1ccccc1N1CC2(COC2)C1", "note": "[I.03, 7,8-difluoro-2-methyl-3-[2-(2-oxa-6-azaspiro[3.3]heptan-6-yl)phenoxy]quinoline]", "values": [{"measurement": "chromatographic logP", "result": 3.48}]}
{"smiles": "Cc1nc2c(F)c(F)ccc2cc1Cc1ccccc1C1(C)COC1", "note": "[I.04, 7,8-difluoro-2-methyl-3-[2-(3-methyloxetan-3-yl)benzyl]quinoline]", "values": [{"measurement": "chromatographic logP", "result": 3.47}]}
{"smiles": "Cc1nc2c(F)c(F)ccc2cc1Nc1cccc(F)c1CN1CC(F)(F)C1", "note": "[I.10, N-{2-[(3,3-difluoroazetidin-1-yl)methyl]-3-fluorophenyl}-7,8-difluoro-2-methylquinolin-3-amine]", "values": [{"measurement": "chromatographic logP", "result": 4.33}]}
{"smiles": "Cc1nc2c(F)c(F)ccc2cc1Cc1ccccc1C#CC1COC1", "note": "[I.14, 7,8-difluoro-2-methyl-3-[2-(oxetan-3-ylethynyl)benzyl]quinoline]", "values": [{"measurement": "chromatographic logP", "result": 3.66}]}
{"smiles": "Cc1nc2c(F)c(F)ccc2cc1Nc1cccc(F)c1OC1COC1", "note": "[I.15, 7,8-difluoro-N-[3-fluoro-2-(oxetan-3-yloxy)phenyl]-2-methylquinolin-3-amine]", "values": [{"measurement": "chromatographic logP", "result": 3.28}]}
{"smiles": "Cc1nc2c(F)c(F)ccc2cc1Oc1ccccc1C(O)C(C)(C)CO", "note": "(centres unmarked) [IIa.01, 1-{2-[(7,8-difluoro-2-methylquinolin-3-yl)oxy]phenyl}-2,2-dimethylpropane-1,3-diol]", "values": [{"measurement": "chromatographic logP", "result": 2.96}]}
{"smiles": "Cc1nc2c(F)c(F)ccc2cc1Oc1cccc(I)c1C(O)C(C)(C)CO", "note": "(centres unmarked) [IIa.02, 1-{2-[(7,8-difluoro-2-methylquinolin-3-yl)oxy]-6-iodophenyl}-2,2-dimethylpropane-1,3-diol]", "values": [{"measurement": "chromatographic logP", "result": 3.57}]}
{"smiles": "O=Cc1ccccc1Nc1cnc2c(F)cccc2c1", "note": "[IV.01, 2-[(8-fluoroquinolin-3-yl)amino]benzaldehyde]", "values": [{"measurement": "chromatographic logP", "result": 2.88}]}
{"smiles": "O=Cc1c(F)cccc1Oc1cnc2ccccc2c1", "note": "[IV.02, 2-fluoro-6-(quinolin-3-yloxy)benzaldehyde]", "values": [{"measurement": "chromatographic logP", "result": 2.43}]}
{"smiles": "Cc1nc2ccccc2cc1Oc1cccc(F)c1C=O", "note": "[IV.03, 2-fluoro-6-[(2-methylquinolin-3-yl)oxy]benzaldehyde]", "values": [{"measurement": "chromatographic logP", "result": 2.32}]}
{"smiles": "Cc1nc2c(F)c(F)ccc2cc1Oc1ccccc1C=O", "note": "[IV.04, 2-[(7,8-difluoro-2-methylquinolin-3-yl)oxy]benzaldehyde]", "values": [{"measurement": "chromatographic logP", "result": 3.21}]}
{"smiles": "Cc1nc2c(F)c(F)ccc2cc1Oc1cccc(F)c1C=O", "note": "[IV.05, 2-[(7,8-difluoro-2-methylquinolin-3-yl)oxy]-6-fluorobenzaldehyde]", "values": [{"measurement": "chromatographic logP", "result": 3.1}]}
{"smiles": "Fc1cccc(Br)c1CN1CC(F)(F)C1", "note": "[IX_C, 1-(2-bromo-6-fluorobenzyl)-3,3-difluoroazetidine]", "values": [{"measurement": "chromatographic logP", "result": 1.89}]}
{"smiles": "CC1(c2ccccc2CBr)COC1", "note": "[XIII.01, 3-[2-(bromomethyl)phenyl]-3-methyloxetane]", "values": [{"measurement": "chromatographic logP", "result": 2.73}]}
{"smiles": "CC1(c2ccccc2CO)COC1", "note": "[XIV.01, [2-(3-methyloxetan-3-yl)phenyl]methanol]", "values": [{"measurement": "chromatographic logP", "result": 1.3}]}
